Counter-ions that a name gives are not always drawn.
How the values were obtained:
[1] = target: h-Sortilin (Homo sapiens (Human), UniProt Q99523); assay: Neurotensin (NTS) scintillation proximity assay (SPA): displacement of [3H]-neurotensin binding; settings: 150 nM 6his-Sortilin, 5 nM [3H]-Neurotensin; average of at least 2 determinations
Experimental: The exemplified compounds of the invention were tested in a Neurotensin (NTS) scintillation proximity assay (SPA). NTS, which is a 13 amino acid neuropeptide, is a sortilin ligand. The IC50 is a measure of the amount of the compound required to inhibit the binding of NTS to sortilin by 50%. […] Compound affinity was determined by measuring the displacement of [^3H]-neurotensin binding to h-Sortilin in SPA format. […] IC50 values were calculated by nonlinear regression using the sigmoid concentration-response (variable slope) using CDD Vault software. All values reported are average of at least 2 determinations.

[2] = target: human Sortilin (Homo sapiens (Human), UniProt Q99523); assay: Creoptix (GCI) binding kinetics, human Sortilin; settings: screened at 1 μM
Chain of human Sortilin (Q99523 78-755): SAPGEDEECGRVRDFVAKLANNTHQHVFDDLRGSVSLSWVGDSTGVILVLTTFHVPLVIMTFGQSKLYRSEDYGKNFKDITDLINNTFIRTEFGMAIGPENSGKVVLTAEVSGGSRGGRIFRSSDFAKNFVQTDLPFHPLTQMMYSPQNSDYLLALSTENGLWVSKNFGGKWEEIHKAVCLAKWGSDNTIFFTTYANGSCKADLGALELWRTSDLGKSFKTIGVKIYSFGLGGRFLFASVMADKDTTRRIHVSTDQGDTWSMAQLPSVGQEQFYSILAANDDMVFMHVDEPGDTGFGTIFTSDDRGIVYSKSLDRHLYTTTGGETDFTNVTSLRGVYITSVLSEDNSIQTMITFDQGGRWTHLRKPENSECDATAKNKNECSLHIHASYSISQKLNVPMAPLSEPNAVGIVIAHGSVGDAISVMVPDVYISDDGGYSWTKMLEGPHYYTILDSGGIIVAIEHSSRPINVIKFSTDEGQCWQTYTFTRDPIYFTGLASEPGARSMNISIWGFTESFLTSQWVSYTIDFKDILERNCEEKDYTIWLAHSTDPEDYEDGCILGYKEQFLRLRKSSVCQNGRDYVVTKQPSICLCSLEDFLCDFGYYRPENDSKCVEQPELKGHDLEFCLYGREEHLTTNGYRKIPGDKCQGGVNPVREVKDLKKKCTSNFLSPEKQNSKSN
Experimental: A protein, bound to a surface, is bathed in a solution containing potential ligands giving rise to binding kinetics to generate Kon and Koff rates, as well as a Kd.
All buffers described were filtered using a 0.2 μm filter (Product number: 10300461, Nalgene) and degassed for 15 minutes prior to use.
A flow cell temperature of 25 degrees Celsius was used throughout the experiment.
A 4PCH chip was conditioned across all flow cells using 0.2× concentration running buffer (running buffer composition: 1×HBS-N, pH 7.4, 3.4 mM EDTA, 1% DMSO) using pre-set conditioning wizard (WAVE control software) injecting: 0.1 M borate, 1 M NaCl (pH 9) followed by three start-up injections of 0.2× running buffer.
A buffer exchange was performed and 1× running buffer (1×HBS-N, pH 7.4, 3.4 mM EDTA, 1% DMSO) used during the immobilisation procedure:
An initial injection of EDC/NHS (mixed in 1:1 ratio) was performed across all 4-flow cells to activate the surface for amine coupling of ligands.
Recombinant Sortilin aliquots were thawed quickly by hand and centrifuged at 13,300 rpm for 10 minutes. A 10 μg/ml protein solution was then made in pH 5.0 acetate and injected once for 20 minutes over flow-cells 2, 3 and 4 for human, human (flow cells 2 & 3), and mouse Sortilin respectively followed by a 60 second dissociation period.
A final 7-minute passivation injection of 50 mM tris was used across all flow cells.
A flow rate of 10 μl/min was used for all conditioning and immobilisation cycles.
Compounds were screened at 1 μM using the in-built ‘intermediate binders’ settings: 100 ul/min, 45 s baseline, 25 s association, 300 s dissociation, with blanks every 5th sample and a DMSO correction (1.5% DMSO at the start and end of the experiment as well as every 20 cycles. An acquisition rate of 10 Hz was used throughout the experiment.
Compounds were screened at a final assay concentration of 1 μM and a final DMSO concentration was 1%. To achieve this, compounds were diluted in DMSO from 10 mM stocks to 100 μM (100×final assay concentration) then diluted 1:100 in running buffer which contained no DMSO to establish a final assay concentration of compound of 1 μM and a final DMSO concentration of 1% [DMSO].
Compounds and DMSO were mixed by plate shaking at 1000 rpm for 60 seconds using a Bioshake instrument.
A flow rate of 100 μl/min was used throughout the experiment.
Data was evaluated using the RAPID kinetic analysis tool in the GCI WAVE_control software with data fitted using a standard 1:1 kinetic BioModel.

Chain of h-Sortilin (Q99523 78-831): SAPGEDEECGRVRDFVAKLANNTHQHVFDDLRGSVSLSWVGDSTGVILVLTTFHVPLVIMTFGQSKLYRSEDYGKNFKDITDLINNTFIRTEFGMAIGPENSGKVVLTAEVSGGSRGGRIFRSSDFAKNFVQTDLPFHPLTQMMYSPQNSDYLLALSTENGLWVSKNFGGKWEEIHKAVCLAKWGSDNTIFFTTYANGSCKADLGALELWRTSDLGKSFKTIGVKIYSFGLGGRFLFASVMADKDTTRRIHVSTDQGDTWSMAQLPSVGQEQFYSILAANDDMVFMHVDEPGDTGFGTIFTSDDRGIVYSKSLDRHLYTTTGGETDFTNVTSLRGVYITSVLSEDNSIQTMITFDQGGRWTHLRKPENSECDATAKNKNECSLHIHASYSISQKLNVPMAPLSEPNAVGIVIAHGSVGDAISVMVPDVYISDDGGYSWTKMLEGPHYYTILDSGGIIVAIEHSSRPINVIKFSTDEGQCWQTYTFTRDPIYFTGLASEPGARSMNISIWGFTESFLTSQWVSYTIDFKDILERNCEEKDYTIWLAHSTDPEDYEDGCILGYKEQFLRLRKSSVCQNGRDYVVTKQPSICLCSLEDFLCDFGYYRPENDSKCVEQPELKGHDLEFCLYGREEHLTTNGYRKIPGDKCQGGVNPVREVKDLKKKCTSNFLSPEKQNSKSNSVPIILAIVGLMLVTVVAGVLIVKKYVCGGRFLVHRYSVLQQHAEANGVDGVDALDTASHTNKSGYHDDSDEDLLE

| SMILES | IC50 [1] [nM] | Kd ([2]; HCl salt) [nM] | Kd ([2]; Free acid) [nM] | Kd ([2]; Ms salt) [nM] |
| --- | --- | --- | --- | --- |
| CC(C)(C)CC[C@H](NCc1ccccc1)C(=O)O [Example 3, (S)-2-(benzylamino)-5,5-dimethylhexanoic acid hydrochloride] | 766 | 902 |  |  |
| COc1ccccc1CN[C@@H](CCC(C)(C)C)C(=O)O [Example 9, (S)-2-((2-methoxybenzyl)amino)-5,5-dimethylhexanoic acid hydrochloride] | 630 | 8450 |  |  |
| COc1cccc([C@H](N[C@@H](CCC(C)(C)C)C(=O)O)C(F)F)c1 [Example 21, (2S)-2-{[(1S)-2,2-difluoro-1-(3-methoxyphenyl)ethyl]amino}-5,5-dimethylhexanoic acid] | 270 |  | 284 |  |
| COc1cccc([C@@H](N[C@@H](CCC(C)(C)C)C(=O)O)C(F)F)c1 [Example 22, (2S)-2-{[(1R)-2,2-difluoro-1-(3-methoxyphenyl)ethyl]amino}-5,5-dimethylhexanoic acid] | 260 |  | 5960 |  |
| COc1cccc([C@@H](N[C@@H](CCC(C)(C)C)C(=O)O)C(F)(F)F)c1 [Example 23, (2S)-5,5-dimethyl-2-{[(1R)-2,2,2-trifluoro-1-(3-methoxyphenyl)ethyl]amino}hexanoic acid] | 390 |  | 4020 |  |
| COc1cccc([C@H](N[C@@H](CCC(C)(C)C)C(=O)O)C(F)(F)F)c1 [Example 24, (2S)-5,5-dimethyl-2-{[(1S)-2,2,2-trifluoro-1-(3-methoxyphenyl)ethyl]amino}hexanoic acid] |  |  | 230 |  |
| COc1ccc(OC)c(CN[C@@H](CCC(C)(C)C)C(=O)O)c1 [Example 28, (2S)-2-{[(2,5-dimethoxyphenyl)methyl]amino}-5,5-dimethylhexanoic acid] | 2220 |  | 1020 |  |
| COc1cc(F)cc(CN[C@@H](CCC(C)(C)C)C(=O)O)c1 [Example 29, (2S)-2-{[(3-fluoro-5-methoxyphenyl)methyl]amino}-5,5-dimethylhexanoic acid] | 550 |  | 571 |  |
| COc1cc(Cl)cc(CN[C@@H](CCC(C)(C)C)C(=O)O)c1 [Example 30, (2S)-2-{[(3-chloro-5-methoxyphenyl)methyl]amino}-5,5-dimethylhexanoic acid] | 580 |  | 450 |  |
| COc1cc(Br)cc(CN[C@@H](CCC(C)(C)C)C(=O)O)c1 [Example 31, (2S)-2-{[(3-bromo-5-methoxyphenyl)methyl]amino}-5,5-dimethylhexanoic acid] | 520 |  | 432 |  |
| COc1cc(CN[C@@H](CCC(C)(C)C)C(=O)O)ccc1C [Example 33, (2S)-2-{[(3-methoxy-4-methylphenyl)methyl]amino}-5,5-dimethylhexanoic acid] | 400 |  | 242 |  |
| COc1ccc(CN[C@@H](CCC(C)(C)C)C(=O)O)cc1OC [Example 38, (2S)-2-{[(3,4-dimethoxyphenyl)methyl]amino}-5,5-dimethylhexanoic acid] | 1360 |  | 747 |  |
| CC(C)(C)CC[C@H](NCc1ccc2c(c1)CCCO2)C(=O)O [Example 40, (2S)-2-{[(3,4-dihydro-2H-1-benzopyran-6-yl)methyl]amino}-5,5-dimethylhexanoic acid] | 470 |  | 101 |  |
| CC(C)(C)CC[C@H](NCc1ccc2c(c1)OCCO2)C(=O)O [Example 41, (2S)-2-{[(2,3-dihydro-1,4-benzodioxin-6-yl)methyl]amino}-5,5-dimethylhexanoic acid] | 330 |  | 5960 |  |
| CC(C)(C)CC[C@H](NCc1cccc2c1OCO2)C(=O)O [Example 45, (2S)-2-{[(2H-1,3-benzodioxol-4-yl)methyl]amino}-5,5-dimethylhexanoic acid] | 1060 |  | 285 |  |
| CC(C)(C)CC[C@H](NCc1cncnc1)C(=O)O [Example 55, (2S)-5,5-dimethyl-2-{[(pyrimidin-5-yl)methyl]amino}hexanoic acid] | 410 |  | 1980 |  |

| SMILES | IC50 [1] [nM] | Kd ([2]; HCl salt) [nM] | Kd ([2]; Free acid) [nM] | Kd ([2]; Ms salt) [nM] |
| --- | --- | --- | --- | --- |
| COc1cc(C)cc(CN[C@@H](CCC(C)(C)C)C(=O)O)c1 [Example 69, (2S)-2-{[(3-methoxy-5-methylphenyl)methyl]amino}-5,5-dimethylhexanoic acid] | 1390 |  | 2760 |  |
| COc1cc(CN[C@@H](CCC(C)(C)C)C(=O)O)ccc1F [Example 74, (2S)-2-{[(4-fluoro-3-methoxyphenyl)methyl]amino}-5,5-dimethylhexanoic acid] | 950 |  | 3390 |  |
| COc1cccc(CN[C@@H](CCC(C)(C)C)C(=O)O)c1C [Example 75, (2S)-2-{[(3-methoxy-2-methylphenyl)methyl]amino}-5,5-dimethylhexanoic acid] | 980 |  | 443 |  |
| COc1ccc([C@H](C)N[C@@H](CCC(C)(C)C)C(=O)O)cc1C [Example 101] | 280 |  | 277 |  |
| COc1ccc([C@@H](C)N[C@@H](CCC(C)(C)C)C(=O)O)cc1C [Example 102] | 540 |  | 407 |  |
| CC(C)(C)CC[C@H](NCc1cnc2cccnc2c1)C(=O)O [Example 103, (2S)-5,5-dimethyl-2-{[(1,5-naphthyridin-3-yl)methyl]amino}hexanoic acid] | 160 |  | 83.2 |  |
| COc1ccc([C@@H](C)N[C@@H](CCC(C)(C)C)C(=O)O)cc1OC [Example 107, (2S)-2-{[(1R)-1-(3,4-dimethoxyphenyl)ethyl]amino}-5,5-dimethylhexanoic acid] | 930 |  | 443 |  |
| COc1ccc([C@H](N[C@@H](CCC(C)(C)C)C(=O)O)C(F)F)cc1OC [Example 112, (2S)-2-{[(1S)-1-(3,4-dimethoxyphenyl)-2,2-difluoroethyl]amino}-5,5-dimethylhexanoic acid] | 280 |  | 183 |  |
| COc1ccc([C@@H](N[C@@H](CCC(C)(C)C)C(=O)O)C(F)F)cc1OC [Example 113, (2S)-2-{[(1R)-1-(3,4-dimethoxyphenyl)-2,2-difluoroethyl]amino}-5,5-dimethylhexanoic acid] | 320 |  | 625 |  |
| COc1ccc([C@H](N[C@@H](CCC(C)(C)C)C(=O)O)C(F)(F)F)cc1OC [Example 114, (2S)-2-{[(1S)-1-(3,4-dimethoxyphenyl)-2,2,2-trifluoroethyl]amino}-5,5-dimethylhexanoic acid] | 220 |  | 132 |  |
| COc1ccc([C@@H](N[C@@H](CCC(C)(C)C)C(=O)O)C(F)(F)F)cc1OC [Example 115, (2S)-2-{[(1R)-1-(3,4-dimethoxyphenyl)-2,2,2-trifluoroethyl]amino}-5,5-dimethylhexanoic acid] | 420 |  | 351 |  |
| CC(C)(C)CC[C@H](NCc1ccc(Cl)c(Cl)c1)C(=O)O [Example 125, (2S)-2-{[(3,4-dichlorophenyl)methyl]amino}-5,5-dimethylhexanoic acid] | 550 |  |  | 522 |
| Cc1ccc(CN[C@@H](CCC(C)(C)C)C(=O)O)cc1Cl [Example 129, (2S)-2-{[(3-chloro-4-methylphenyl)methyl]amino}-5,5-dimethylhexanoic acid] | 390 |  |  | 512 |
| Cc1ccc(CN[C@@H](CCC(C)(C)C)C(=O)O)c2ccn(C)c12 [Example 131, (S)-2-(((1,7-dimethyl-1H-indol-4-yl)methyl)amino)-5,5-dimethylhexanoic acid, Mesylic acid] | 380 |  | 97.6 |  |
| Cc1ccc(CN[C@@H](CCC(C)(C)C)C(=O)O)cc1C [Example 137, (S)-2-((3,4-dimethylbenzyl)amino)-5,5-dimethylhexanoic acid, Mesylic acid] | 740 |  | 208 |  |
| COc1ccc(F)c(CN[C@@H](CCC(C)(C)C)C(=O)O)c1 [Example 140, (2S)-2-{[(2-fluoro-5-methoxyphenyl)methyl]amino}-5,5-dimethylhexanoic acid] | 850 |  | 456 |  |

Source: patent US20250268854A1, “2-AMINO-5,5-DIMETHYLHEXANOIC ACID DERIVATIVES AS SORTILIN MODULATORS FOR USE IN THE TREATMENT OF DISEASE OF THE CENTRAL NERVOUS SYSTEM” (c/o Vesper Bio ApS, priority 2021, published 2025)
